# Data reported in ChEMBL document CHEMBL6114985, “From Dyrk1A inhibitors to a novel class of antiviral agents: Targeting Enterovirus EV-A71 with 2-aryl-substituted thiophene scaffolds” (Eur J Med Chem, 2025).
# How the values were obtained:
# Enterovirus A71 [1] = experiment: Antiviral activity against Enterovirus A71 TW/2231/98 infected in human RD cells assessed as reduction in cytopathic effect incubated for 3 days; format: functional, organism-based; details: Enterovirus A, TW/2231/98, RD, 72 h
# [2] = Cytotoxicity against human RD cells assessed as reduction in cell growth incubated for 3 days by MTT assay; format: toxicity, cell-based; details: time 3 day
# [3] = Selectivity index, ratio of CC50 for human RD cells to EC50 for antiviral activity against enterovirus A71 TW/2231/98 infected in human RD cells; format: toxicity, cell-based; details: read-out: Ratio CC50/EC50
# [4] = target: Dual specificity tyrosine-phosphorylation-regulated kinase 1A (Homo sapiens, UniProt Q13627); experiment: Inhibition of DYRK1A (unknown origin) at 25 uM incubated for 1 hr relative to control
# Coxsackievirus = experiment: Antiviral activity against Coxsackievirus assessed as reduction in viral replication; format: functional, organism-based
# Human rhinovirus sp. = experiment: Antiviral activity against Human rhinovirus 71803 assessed as reduction in viral replication; format: functional, organism-based
# enterovirus D68 [5] = experiment: Antiviral activity against Enterovirus D68 2795 assessed as reduction in viral replication; format: functional, organism-based; details: Enterovirus D
# Enterovirus A71 [6] = experiment: Antiviral activity against Enterovirus A71 2231 assessed as reduction in viral replication; format: functional, organism-based; details: Enterovirus A
# enterovirus D68 [7] = experiment: Antiviral activity against Enterovirus D68 KY 18953 assessed as reduction in viral replication; format: functional, organism-based; details: Enterovirus D
# Enterovirus A71 [8] = experiment: Antiviral activity against Enterovirus A71 4798 assessed as reduction in viral replication; format: functional, organism-based; details: Enterovirus A
# Influenza A virus = experiment: Antiviral activity against influenza A virus assessed as reduction in viral replication; format: functional, organism-based
# Enterovirus A71 [9] = experiment: Antiviral activity against Enterovirus A71 TW/2231/98 infected in human RD cells assessed as inhibition of viral plaque formation at 45 uM incubated for 3 to 5 days by crystal violet staining based plaque reduction assay relative to control; format: functional; details: Enterovirus A, TW/2231/98, RD, time 3-5 day
# [10] = Cytotoxicity against human A549 cells infected with Human adenovirus; format: toxicity, cell-based
# Human adenovirus sp. = experiment: microbe, parasite or virus in culture; details: A549
# [11] = Cytotoxicity against human A549 cells infected with Herpes Simplexvirus; format: toxicity, cell-based; details: A549 cells infected with herpes simplex virus
# Herpes Simplexvirus = experiment: microbe, parasite or virus in culture; details: A549
# [12] = Metabolic stability in mouse liver microsome assessed as half life incubated for 120 mins by HPLC-MS/MS; format: ADME; details: liver microsomes
# [13] = Stability in human plasma assessed as half life by HPLC-MS/MS; format: ADME, cell-free
# [14] = Plasma protein binding in human by rapid equilibrium dialysis based HPLC-MS/MS analysis; format: ADME, cell-free; details: read-out: PPB (converted)
# [15] = Plasma protein binding in mouse by rapid equilibrium dialysis based HPLC-MS/MS analysis; format: ADME, cell-free; details: read-out: PPB (converted)
# [16] = Stability in mouse plasma assessed as half life by HPLC-MS/MS; format: ADME, cell-free
# [17] = Metabolic stability in human liver microsome assessed as half life incubated for 120 mins by HPLC-MS/MS; format: ADME; details: liver microsomes
# [18] = Lipophilicity, logD of compound by UPLC-MS analysis; format: physicochemical; details: octanol/water
# [19] = Metabolic stability in mouse liver microsome assessed as intrinsic clearance incubated for 120 mins by HPLC-MS/MS; format: ADME; details: liver microsomes, read-out: CLH
# [20] = Metabolic stability in human liver microsome assessed as intrinsic clearance incubated for 120 mins by HPLC-MS/MS; format: ADME; details: liver microsomes, read-out: CLH
SMILES,EC50 (Enterovirus A71 [1]),CC50 at 72 h [2],selectivity ratio [3],other results
COc1ccc(F)c(C(=O)Nc2cncc(-c3cn(-c4cccnc4)nn3)c2)c1,> 10 µM,,,
COc1ccc(F)c(C(=O)Nc2cccc(-c3cccs3)n2)c1,> 10 µM,,,
COc1cc(C(=O)Nc2cncc(-c3cc(-c4cccnc4)cs3)c2)ccc1C,> 10 µM,,,
O=C(Nc1cncc(-c2cc(-c3cccnc3)cs2)c1)c1ccc(OC(F)(F)F)cc1,> 10 µM,,,
COc1ccc(F)c(C(=O)Nc2cncc(-c3cc(-c4cccnc4F)cs3)c2)c1,8.7 µM,> 100 µM,> 11.5,
COc1ccc(F)c(C(=O)Nc2cncc(-c3cc(-c4ccncc4)cs3)c2)c1,> 10 µM,,,
COc1c(F)ccc(C(=O)Nc2cncc(-c3cc(-c4cccnc4)cs3)c2)c1F,> 10 µM,,,
COc1ccc(F)c(C(=O)Nc2cncc(-c3cc4ccccc4s3)c2)c1,8.7 µM,47.3 µM,5.4,
COc1ccc(Cl)c(C(=O)Nc2cncc(-c3cc(-c4cccnc4)cs3)c2)c1,> 10 µM,,,
COc1ccc(F)c(C(=O)Nc2cncc(-c3cc(-c4cccnc4)cs3)c2)c1F,2.6 µM,20 µM,7.7,inhibition [4]: 81%
COc1cccc(C(=O)Nc2cncc(-c3cc(-c4cccnc4)cs3)c2)c1F,7.2 µM,21.3 µM,3,
COc1cc(C(=O)Nc2cncc(-c3cc(-c4cccnc4)cs3)c2)ccc1F,> 10 µM,,,
COc1ccc(C(=O)Nc2cncc(-c3cc(-c4cccnc4)cs3)c2)c(F)c1,> 10 µM,,,
COc1ccc(F)c(C(=O)Nc2cncc(-c3cc(-c4cnccc4C)cs3)c2)c1,9.1 µM,18.1 µM,2,
COc1ccc(F)c(CNc2cncc(-c3cccs3)c2)c1,> 10 µM,,,
CCOC(=O)c1ccc(OCCC2CCN(c3ccc(C)nn3)CC2)cc1 [PIRODAVIR],0.6 µM,> 10 µM,> 16.7,
COc1ccc(F)c(C(=O)Nc2cncc(-c3ccccc3)c2)c1,> 10 µM,,,
O=C(Nc1cncc(-c2cc(-c3cccnc3)cs2)c1)c1ccc(O)cc1,> 10 µM,> 10 µM,,
COc1cccc(C(=O)Nc2cncc(-c3cc(Br)cs3)c2)c1F,8.9 µM,,,
COc1ccc(F)c(C(=O)Nc2cncc(-c3cccnc3)c2)c1,> 10 µM,,,
COc1ccc(F)c(C(=O)Nc2cc(-c3cccs3)ccn2)c1,2.4 µM,33.5 µM,14,inhibition [4]: 4%
COc1ccc(F)c(C(=O)Nc2cncc(-c3cccs3)n2)c1,> 10 µM,,,

SMILES,EC50 (Enterovirus A71 [1]),CC50 at 72 h [2],selectivity ratio [3],other results
O=C(Nc1cncc(-c2cccs2)c1)c1c(F)cc(F)cc1F,5.4 µM,45.3 µM,8.4,EC50 (Coxsackievirus): 9.9 µM; EC50 (Human rhinovirus sp.): 7.5 µM; EC50 (enterovirus D68 [5]): 5 µM; EC50 (Enterovirus A71 [6]): 5.4 µM; EC50 (enterovirus D68 [7]): 5.4 µM; EC50 (Enterovirus A71 [8]): 7.3 µM; EC50 (Influenza A virus): > 10 µM
COc1cc(OC)cc(C(=O)Nc2cncc(-c3cc(-c4cccnc4)cs3)c2)c1,> 10 µM,,,
COc1ccc2c(c1)[nH]c1c(C)nccc12 [HARMINE],,,,inhibition at 45 µM (Enterovirus A71 [9]): 40%; CC50 [10]: > 20 µM; EC50 (Human adenovirus sp.): 5.7 µM; CC50 [11]: > 20 µM; EC50 (Herpes Simplexvirus): 3.3 µM
COc1ccc(Cl)c(C(=O)Nc2cncc(-c3cc(-c4cccnc4)cs3)c2)c1F,5.7 µM,> 100 µM,> 17.5,inhibition [4]: 95%
COc1ccc(F)c(C(=O)Nc2cncc(-c3cc(-c4cn[nH]c4)cs3)c2)c1,5.4 µM,19.6 µM,3.6,
COc1ccc(F)c(C(=O)Nc2cncc(-c3cccs3)c2)c1,4.3 µM,75.7 µM,17.6,half-life [12]: 11 min; half-life [13]: > 240 min; fraction unbound [14]: 0.0165; fraction unbound [15]: 0.038; EC50 (Coxsackievirus): 3.9 µM; EC50 (Human rhinovirus sp.): 4.8 µM; EC50 (enterovirus D68 [5]): 3.6 µM; inhibition [4]: 0%; half-life [16]: > 240 min; half-life [17]: 31.5 min; logD [18]: 3.52; EC50 (Enterovirus A71 [6]): 4.3 µM; EC50 (enterovirus D68 [7]): 3.5 µM; EC50 (Enterovirus A71 [8]): 5.5 µM; microsomal CLint [19]: 127 µL/min/mg; EC50 (Influenza A virus): > 10 µM; microsomal CLint [20]: 44 µL/min/mg
COc1ccc(F)c(C(=O)N(C)c2cncc(-c3cc(-c4cccnc4)cs3)c2)c1,> 10 µM,,,
COc1cccc(C(=O)Nc2cncc(-c3cccs3)c2)c1F,4.7 µM,52.8 µM,11.2,
COc1ccc(F)c(C(=O)Nc2cncc(-c3cc(-c4cccnc4C)cs3)c2)c1,9.1 µM,15.6 µM,1.7,
COc1ccc(C(=O)Nc2cncc(-c3cc(-c4cccnc4)cs3)c2)cc1OC,> 10 µM,,,
COc1cc(C(=O)Nc2cncc(-c3cc(Br)cs3)c2)ccc1C,> 10 µM,,,
COc1ccc(F)c(C(=O)Nc2cncc(-c3ncns3)c2)c1,> 10 µM,,,
CC(C)(C)Oc1ccc(C(=O)Nc2cncc(-c3cc(-c4cccnc4)cs3)c2)cc1,> 10 µM,,,
COc1ccc(F)c(C(=O)Nc2cncc(-c3cncs3)c2)c1,> 10 µM,,,
COc1ccc(C(=O)Nc2cncc(-c3cc(-c4cccnc4)cs3)c2)cc1F,> 10 µM,,,
COc1cc(C(=O)Nc2cncc(-c3cccs3)c2)ccc1C,> 10 µM,,,
COc1ccc(F)c(C(=O)Nc2ccnc(-c3cccs3)c2)c1,> 10 µM,,,
COc1ccc(F)c(C(=O)Nc2cncc(-c3cc(-c4cccnc4)cs3)c2)c1Cl,5.2 µM,> 100 µM,> 19.2,half-life [12]: 10 min; half-life [13]: > 240 min; fraction unbound [14]: 0.0029; EC50 (Coxsackievirus): > 10 µM; EC50 (Human rhinovirus sp.): 6.9 µM; EC50 (enterovirus D68 [5]): 5.1 µM; inhibition [4]: 93%; half-life [16]: > 240 min; half-life [17]: 25 min; logD [18]: 3.22; EC50 (Enterovirus A71 [6]): 5.2 µM; EC50 (enterovirus D68 [7]): 3.7 µM; EC50 (Enterovirus A71 [8]): 4 µM; microsomal CLint [19]: 137 µL/min/mg; microsomal CLint [20]: 56 µL/min/mg
COc1ccc(F)c(C(=O)Nc2cncc(-c3nccs3)c2)c1,> 10 µM,,,
COc1ccc(F)c(S(=O)(=O)Nc2cncc(-c3cccs3)c2)c1,> 10 µM,,,
COc1ccc(F)c(C(=O)Nc2cncc(-c3cc(-c4ccccc4)cs3)c2)c1,> 10 µM,,,
